Experimental data taken from patent US4087461A, “Anti-androgenic steroids” (The Johns Hopkins University, priority 1977, dated 1978).
“Also recorded” adds a separate entry of the source.

How the values were obtained:
[1] = molecular target: T1, Δ^5 -3-ketosteroid isomerase (EC 5.3.3.1) (Comamonas testosteroni, UniProt P00947); test: irreversible inactivation of crystalline purified bacterial Δ^5-3-ketosteroid isomerase by acetylenic steroids (Kitz and Wilson kinetic analysis); format: biochemical, Pseudomonas testosteroni
Procedure: The inactivation is progressive with time, and half-lives in the range of 150-1320 sec are observed at concentrations of 20-200 μM of the two inhibitors. The enzymatic activities of control vessels which received only equivalent volumes of 1,4-dioxane remained constant at initial activities.
The initial rates of inactivation of the isomerase by (1) and (2) can be analyzed by the method of Kitz and Wilson^8 since very satisfactory pseudo-first-order behavior was observed. It is assumed that [I] (inhibitor) >> [E] (enzyme), that [E.I] (the reversible enzyme-inhibitorcomplex) is at all times in equilibrium with enzyme and inhibitor, and that ^k cat >> ^k inh. The scheme for the formation of EI' (the irreversible enzyme-inhibitor derivative) may then be represented as follows.
If the enzyme-inhibitor solution is diluted extensively prior to assay, the active enzyme (ε) = [E] + [E.I]. Then -d(ε)/dt = k3 [E.I.], and K1 = ([E][I])/[EI]. Thus [formula] where Et = total amount of enzyme in system.
If one defines [formula] Consequently double reciprocal plots of kapp with respect to [I] should be linear, with slopes and intercepts permitting the determination of K1 and k3 where the latter is the overall rate constant for the irreversible inhibition process.
From plots of 1n ε (residual enzymatic activity) vs. time, kapp has been determined at five inhibitor concentrations for both compounds 1 and 2, i.e. estryne and pregnyne. Strict linearity of the semilogarithmic plots has been observed in all cases, over greater than two half-lives. A plot of 1/kapp vs. 1/[I] was linear and gave k3 and K1 (FIG. 1). For compound 1, K1 = 56 μM and k3 = 1.98 × 10^-3 sec^-1, and for compound 2, K1 = 32 μM and k3 = 4.10 × 10^-3 sec^-1.
Studies were performed using crystalline purified bacterial Δ^5 -3-ketosteroid isomerase (from P. testosteroni), under pseudo first order conditions using the kinetic analysis of R. Kitz and I. B. Wilson [J. Biol. Chem., 237, 3245 (1964)].

[2] = molecular target: T1, Δ^5 -3-ketosteroid isomerase (EC 5.3.3.1); test: as above; format: biochemical, Pseudomonas testosteroni; conditions: 24 hr at 4° vs. 1 mM potassium phosphate buffer, pH 7.0
[3] = tested on: endogenous androgen biosynthesis; test: study in intact male rats: weights of sex accessory tissue and other organs; format: in vivo, male Sprague-Dawley rats; conditions: 7 days; for Adrenal weight (± Sem): control 28 ± 2; for Dorsal Lateral Prostate weight (± Sem): control 252 ± 14; for Seminal Vesicles weight (± Sem): control 470 ± 26; for Ventral Prostate weight (± Sem): control 482 ± 24; for Kidney weight (± Sem): control 1410 ± 38; for Testis weight (± Sem): control 1580 ± 23
Procedure: Studies with intact male Sprague-Dawley rats (300g body weight) are illustrated for compounds (1) and (2).
Similarly, compound (2), […] rats at a dosage of 20mg per kilo for 7 days produced 20% reduction in weight of the ventral prostate and 28% reduction of the dorsal lateral prostate.
The following data illustrates the inhibiting effect of estryne and pregnyne on Δ^5 -3-ketosteroid isomerase (EC 5.3.3.1) as evidenced by a depression of the wet weight of the sex accessory tissue in the mature male rat treated with the estryne and pregnyne.
A. Male rats were used to assess the effect of estryne on endogenous androgen biosynthesis at varying doses (1-20 mg/kg body weight). […] On the eighth day the animals were sacrificed and the ventral prostate, dorsal lateral prostate, seminal vesicles, testes, kidneys, and adrenals were removed and weighed. Samples of each tissue were preserved in 10% buffered formalin for histological examination.
B. Male rats were treated with 19-norpregnyne by a regimen exactly as described for the estryne.

[4] = molecular target: T2, cytosol androgen receptor (prostate androgen binding protein) (Rattus norvegicus, UniProt P15207); test: inhibition of nuclear uptake of ^3H-dihydrotestosterone in ventral prostate minces (binding to the prostatic androgen receptor)
T2 construct: freshly minced ventral prostate tissue obtained from rats castrated 24 hours before sacrifice; from tissue; host or cells: ventral prostate minces of castrated rats
T2 sequence (P15207 1-902): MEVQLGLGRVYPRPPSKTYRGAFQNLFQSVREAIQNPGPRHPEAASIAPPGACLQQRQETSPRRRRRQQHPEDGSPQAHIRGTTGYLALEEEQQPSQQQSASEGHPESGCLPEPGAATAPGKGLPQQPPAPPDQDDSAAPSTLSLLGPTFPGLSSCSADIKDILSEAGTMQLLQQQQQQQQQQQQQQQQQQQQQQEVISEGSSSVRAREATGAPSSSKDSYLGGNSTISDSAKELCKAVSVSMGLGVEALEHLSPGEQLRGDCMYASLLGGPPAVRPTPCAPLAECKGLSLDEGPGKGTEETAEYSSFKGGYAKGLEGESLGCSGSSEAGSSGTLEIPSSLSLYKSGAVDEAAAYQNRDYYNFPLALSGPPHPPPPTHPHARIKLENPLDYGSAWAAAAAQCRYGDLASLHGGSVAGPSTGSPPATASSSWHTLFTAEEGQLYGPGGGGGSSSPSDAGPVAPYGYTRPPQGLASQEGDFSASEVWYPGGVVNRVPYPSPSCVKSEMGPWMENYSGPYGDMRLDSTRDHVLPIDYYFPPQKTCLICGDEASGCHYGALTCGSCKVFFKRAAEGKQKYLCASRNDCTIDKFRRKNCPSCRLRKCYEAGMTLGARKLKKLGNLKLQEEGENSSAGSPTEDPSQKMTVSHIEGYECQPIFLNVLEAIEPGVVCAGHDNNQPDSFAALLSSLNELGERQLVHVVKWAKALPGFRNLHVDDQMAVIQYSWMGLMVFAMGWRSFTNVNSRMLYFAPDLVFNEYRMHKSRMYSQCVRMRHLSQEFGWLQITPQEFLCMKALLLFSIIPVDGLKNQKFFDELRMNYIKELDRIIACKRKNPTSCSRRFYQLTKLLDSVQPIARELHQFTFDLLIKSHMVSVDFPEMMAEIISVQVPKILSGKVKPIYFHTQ
Procedure: The binding to the cytosol androgen receptor was determined by the procedure of Fang (5) with modification. […] The amount of radioactivity in the nuclei is expressed as observed counts per minute per 100 μg DNA.

[5] = 20mg per kilo per day, i.p. in propylene glycol

T1 sequence (P00947 whole entry, stated change not applied): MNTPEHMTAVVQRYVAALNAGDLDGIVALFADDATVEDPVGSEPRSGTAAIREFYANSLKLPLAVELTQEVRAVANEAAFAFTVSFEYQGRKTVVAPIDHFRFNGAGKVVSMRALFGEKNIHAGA

## CC(=O)[C@H]1CC[C@H]2[C@@H]3CC#CCC(=O)CCC(=O)[C@H]3CC[C@]12C [Compound 2, 5,10-seco-19-norpregn-5-yne-3,10,20-trione]
[1]; in words
  irreversible inhibition / inactivation of the enzyme: rapid irreversible inhibition; also recorded: rapid irreversible and complete inactivation of the enzyme; also recorded: Powerful irreversible inhibition
[1]; pH 7.0, 20-200 μM of the two inhibitors, in 1,4-dioxane
  half-life of enzyme inactivation: 2.5 to 22 min
[1]; pH 7, pseudo first order conditions, five inhibitor concentrations (10-fold range), read-out: k3, overall rate constant for the irreversible inhibition process
  kinact: 0.0041 s⁻¹
[1]; pseudo first order conditions, five inhibitor concentrations (10-fold range), read-out: K1 (KI), inhibitor dissociation constant
  Ki: 32 µM
[2]
  restoration of enzymatic activity by prolonged dialysis: inability to restore enzymatic activity
[3]; [5]
  reduction in weight of the dorsal lateral prostate: 28%
  reduction in weight of the ventral prostate: 20%
[3]; 1-20 mg/kg, in words
  dose dependence of the effect on prostatic weight: dose dependent
[3]; pregnyne 1 mg/kg daily i.p.
  Adrenal weight (± Sem): 22 ± 2 mg
  Dorsal Lateral Prostate weight (± Sem): 205 ± 14 mg
  Seminal Vesicles weight (± Sem): 423 ± 21 mg
  Ventral Prostate weight (± Sem): 405 ± 18 mg
  Kidney weight (± Sem): 1360 ± 48 mg
  Testis weight (± Sem): 1530 ± 68 mg
[3]; pregnyne 5 mg/kg daily i.p.
  Adrenal weight (± Sem): 25 ± 2 mg
  Dorsal Lateral Prostate weight (± Sem): 208 ± 11 mg
  Seminal Vesicles weight (± Sem): 384 ± 17 mg
  Ventral Prostate weight (± Sem): 402 ± 27 mg
  Kidney weight (± Sem): 1370 ± 42 mg
  Testis weight (± Sem): 1510 ± 44 mg
[3]; pregnyne 10 mg/kg daily i.p.
  Adrenal weight (± Sem): 26 ± 1 mg
  Dorsal Lateral Prostate weight (± Sem): 182 ± 19 mg
  Seminal Vesicles weight (± Sem): 390 ± 14 mg
  Ventral Prostate weight (± Sem): 386 ± 20 mg
  Kidney weight (± Sem): 1310 ± 60 mg
  Testis weight (± Sem): 1530 ± 53 mg
[3]; pregnyne 20 mg/kg daily i.p.
  Adrenal weight (± Sem): 31 ± 2 mg
  Dorsal Lateral Prostate weight (± Sem): 180 ± 14 mg
  Seminal Vesicles weight (± Sem): 380 ± 9 mg
  Ventral Prostate weight (± Sem): 360 ± 21 mg
  Kidney weight (± Sem): 1360 ± 43 mg
  Testis weight (± Sem): 1480 ± 63 mg
[4]; rat, 1 h, pH 7.4, steroid 2 × 10^-6 M with ^3H-DHT 2 × 10^-9 M, read-out: nuclear uptake of ^3H-DHT, % Control
  remaining activity at 2 µM: 137%
[4]; steroid 2 × 10^-6 M with ^3H-DHT 2 × 10^-9 M, control 8,471
  CPM/100 DNA (nuclear uptake of ^3H-DHT): 11,636 CPM/100 DNA
[4]; ventral prostate minces, in words
  inhibition of androgen uptake by the nuclei: no inhibition of androgen uptake by the nuclei
